Test results reported in patent US9566263B2, “Methods and formulations for treating scars and β-catenin-mediated disorders” (Hospital for Sick Children, priority 2009, dated 2017).
“Also recorded” adds a separate entry of the source.

Legend:
β-catenin [1] = test: Western blot of β-catenin in hyperplastic wound cell cultures; type: cell-based, human; conditions: vs DMSO control
Experimental: Tissue samples were washed twice with PBS and lysed with Reporter Gene Assay Lysis Buffer (Roche). Lysates were centrifuged at 16,000×g for 5 minutes to remove cell debris and quantified using the Bicinchoninic Acid (BCA) Protein Assay (Pierce). Equal amounts of total protein were separated by electrophoresis through an SDS-polyacrylamide gel, transferred to a nitrocellulose membrane (Amersham), and immunoblotted overnight at 4° C. with primary antibodies against phosphoGSK3β ([…], rabbit polyclonal, New England Biolabs), β-catenin (mouse monoclonal, Upstate Biotechnology), total GSK3β (mouse monoclonal, Transduction Laboratories), and GAPDH (mouse monoclonal, Upstate Biotechnology). Horseradish Peroxidase (HRP)-tagged secondary antibodies and Enhanced ChemiLuminescence (Amersham) were used to detect hybridization. Densitometery was performed using the AlphaEaseFC software (Alpha Innotech). Western blotting was performed in triplicates to ensure reproducibility. β-catenin levels in cell cultures from hyperplastic scars treated with Nefopam or control were analyzed using Western blot analysis. […] GAPDH expression was included as a loading control.

β-catenin [2] = test: Western blot of β-catenin in wounds of Tcf mice; type: in vivo, mouse; conditions: 40 mg/kg daily intraperitoneal, 14 days post-wounding, vs control
From the text: A Tcf-reporter construct containing the lacZ gene downstream of a c-Fos minimal promoter and three consensus Tcf-binding motifs was constructed. Upon binding of β-catenin/Tcf complex to Tcf motifs, the expression of lacZ is activated. Tcf mice were wounded as described previously: two 4 mm diameter full-thickness skin wounds were generated using a dermal biopsy punch (Miltex Instrument Company, York, Pa., USA). […] At 14 days post-wounding, wound sizes were examined, and wound tissues were collected for RNA and protein extraction and fixed for histological examination. Tissue samples were washed twice with PBS and lysed with Reporter Gene Assay Lysis Buffer (Roche). Lysates were centrifuged at 16,000×g for 5 minutes to remove cell debris and quantified using the Bicinchoninic Acid (BCA) Protein Assay (Pierce). Equal amounts of total protein were separated by electrophoresis through an SDS-polyacrylamide gel, transferred to a nitrocellulose membrane (Amersham), and immunoblotted overnight at 4° C. with primary antibodies against phosphoGSK3β ([…], rabbit polyclonal, New England Biolabs), β-catenin (mouse monoclonal, Upstate Biotechnology), total GSK3β (mouse monoclonal, Transduction Laboratories), and GAPDH (mouse monoclonal, Upstate Biotechnology). Horseradish Peroxidase (HRP)-tagged secondary antibodies and Enhanced ChemiLuminescence (Amersham) were used to detect hybridization. […]

[3] = tested on: 4 mm full thickness cutaneous wounds; test: Wound/scar size in Tcf mice, systemic Nefopam; type: in vivo, mouse; conditions: 4 mm punch wound, 40 mg/kg daily systemic, day 14 post-wounding, vs saline carrier
From the text: A Tcf-reporter construct containing the lacZ gene downstream of a c-Fos minimal promoter and three consensus Tcf-binding motifs was constructed. Upon binding of β-catenin/Tcf complex to Tcf motifs, the expression of lacZ is activated. Tcf mice were wounded as described previously: two 4 mm diameter full-thickness skin wounds were generated using a dermal biopsy punch (Miltex Instrument Company, York, Pa., USA). […] At 14 days post-wounding, wound sizes were examined, and wound tissues were collected for RNA and protein extraction and fixed for histological examination. […] Cutaneous wounds were generated using a biopsy punch procedure resulting in a 4 mm diameter full thickness circular wound. Scale is in mm units.

hyperplastic scars = test: TGF-β induced hyperplastic scar model; type: in vivo, mouse; conditions: mice, TGF-β injected prior to wounding, 4 mm punch wounds, 40 mg/kg daily
Experimental: Both oral and intraperitoneal administration routes were evaluated (40 mg/kg body weight, daily; 0.1% DMSO as control).

[4] = tested on: aggressive fibromatosis (AF) tumours; test: Apc+/Apc1638N AF mouse model; type: in vivo; conditions: male Apc/Apc1638N mice
From the text: The generation and phenotype of Apc/Apc1638N mice have been well characterized. These mice harbour a targeted mutation at codon 1638 in the Apc gene as a result of a neomycin insert in antisense orientation at exon 15. […] Treatment by daily oral gavaging began 2 months after Apc/Apc1638N mice were weaned and continued for 3 months. At autopsy, AF tumours and intestinal polyps were scored macroscopically. AF tumours and normal tissue were collected for protein extraction and fixed for histological examination.

[5] = tested on: cultured cells derived from hyperplastic wounds; test: SRB cell viability, hyperplastic wound cells; type: cell-based, human; conditions: hyperplastic wound cell cultures, vs DMSO control, SRB assay
Experimental: (§1) The biological relevance of the screen was considerable since cells used for the screen were obtained from patients with hyperplastic wounds as well as healthy tissue. The experiments were repeated in triplicate within 96 well plates, with each well containing 4000 cells treated with between 0.1 1.0, or 10 μM of compound or DMSO as a control. The Sulforhodamine B assay (SRB) was used to measure cell viability.

[6] = tested on: primary cells derived from human aggressive fibromatosis tumours; test: BrdU incorporation proliferation assay, human AF tumour cells; type: cell-based; conditions: 5 days, vs DMSO
Experimental: (§2) Primary cell cultures from the human AF tumour and normal fascial tissue samples were established. Monolayer cultures were cultured in DMEM supplemented with 10% fetal bovine serum and maintained at 37° C. in 5% CO2. Cells were divided when confluent and experiments were performed between the first and fifth passages.
(§3) Cell viability was measured using the Trypan Blue Dye Exclusion method. Cells were stained with Trypan Blue Dye at a 1:1 ratio, and both live (clear) and dead (blue) cells were accounted for. Proliferation was measured using 5-bromo-2-deoxy-uridine (BrdU) Incorporation assay. After BrdU incubation for 12 hours, cells with incorporated BrdU were identified using […] anti-BrdU antibody and horse anti-mouse antibody conjugated to Alkaline Phosphatase. Presence of BrdU was detected using Alkaline Phosphatase substrate. Percentage of positively stained nuclei out of total nuclei was analyzed over 10 high-powered fields.

β-catenin [7] = test: Western blot/densitometry of β-catenin in human AF tumour primary cell cultures; type: cell-based
Experimental: Primary cell cultures from the human AF tumour and normal fascial tissue samples were established. Monolayer cultures were cultured in DMEM supplemented with 10% fetal bovine serum and maintained at 37° C. in 5% CO2. Cells were divided when confluent and experiments were performed between the first and fifth passages. […] Tissue samples were washed twice with PBS and lysed with Reporter Gene Assay Lysis Buffer (Roche). Lysates were centrifuged at 16,000×g for 5 minutes to remove cell debris and quantified using the Bicinchoninic Acid (BCA) Protein Assay (Pierce). Equal amounts of total protein were separated by electrophoresis through an SDS-polyacrylamide gel, transferred to a nitrocellulose membrane (Amersham), and immunoblotted overnight at 4° C. with primary antibodies against phosphoGSK3β ([…], rabbit polyclonal, New England Biolabs), β-catenin (mouse monoclonal, Upstate Biotechnology), total GSK3β (mouse monoclonal, Transduction Laboratories), and GAPDH (mouse monoclonal, Upstate Biotechnology). Horseradish Peroxidase (HRP)-tagged secondary antibodies and Enhanced ChemiLuminescence (Amersham) were used to detect hybridization. Densitometery was performed using the AlphaEaseFC software (Alpha Innotech). Western blotting was performed in triplicates to ensure reproducibility.

[8] = tested on: primary cells derived from human AF tumours; test: Trypan Blue cell viability, human AF tumour cells; type: cell-based; conditions: 5 days, vs 0.1% DMSO
Experimental: as §2, §3

β-catenin [9] = test: Western blot/densitometry of β-catenin in human fibroblast cells; type: cell-based
Experimental: Tissue samples were washed twice with PBS and lysed with Reporter Gene Assay Lysis Buffer (Roche). Lysates were centrifuged at 16,000×g for 5 minutes to remove cell debris and quantified using the Bicinchoninic Acid (BCA) Protein Assay (Pierce). Equal amounts of total protein were separated by electrophoresis through an SDS-polyacrylamide gel, transferred to a nitrocellulose membrane (Amersham), and immunoblotted overnight at 4° C. with primary antibodies against phosphoGSK3β ([…], rabbit polyclonal, New England Biolabs), β-catenin (mouse monoclonal, Upstate Biotechnology), total GSK3β (mouse monoclonal, Transduction Laboratories), and GAPDH (mouse monoclonal, Upstate Biotechnology). Horseradish Peroxidase (HRP)-tagged secondary antibodies and Enhanced ChemiLuminescence (Amersham) were used to detect hybridization. Densitometery was performed using the AlphaEaseFC software (Alpha Innotech). Western blotting was performed in triplicates to ensure reproducibility. Hyperplastic wounds are characterized by elevated β-catenin levels during the proliferative phase.

[10] = tested on: normal dermal fibroblast cultures; test: SRB cell viability, normal fibroblasts; type: cell-based, human; conditions: SRB assay
Experimental: as §1

CN1CCOC(c2ccccc2)c2ccccc2C1 (stereo not drawn) [Nefopam, 5-methyl-1-phenyl-1,3,4,6-tetrahydro-2,5-benzoxazocine]
β-catenin protein levels (β-catenin [1]): substantially reduce β-catenin protein levels; also recorded: substantially reduced the protein level of β-catenin | β-catenin levels in wounds (β-catenin [2]): decrease in β-catenin levels | scar diameter [3]: significantly smaller in diameter | hyperplastic scar size (hyperplastic scars): smaller scars | number of epithelial-derived polyps in the upper gastrointestinal tract ([4]; 40 mg/kg daily oral gavage): no significant differences | number of AF tumours formed ([4]; 40 mg/kg daily oral gavage for 3 months, at 6 months of age, mean ± 95% CI): 8.18±1.77 | percent cell survival [5]: significant decline in the percent of cells surviving | percent BrdU+/DAPI+ cells (proliferation) [6]: significantly reduces the incorporation of BrdU; also recorded: significantly fewer proliferating cells | decrease in total β-catenin levels (densitometry) (β-catenin [7]; 250 μm Nefopam for 5 days vs 0.1% DMSO): ~5 fold | total β-catenin protein (92 kDa), Western blot (β-catenin [7]; treatment for 5 days): marked decrease in the amount of protein | number of dead cells [8]: the number of dead cells did not change; also recorded: no significant differences in the number of dead cells | number of live cells [8]: significantly decreased the number of live cells; also recorded: significantly smaller number of live cells | decrease in total β-catenin levels (densitometry) (β-catenin [9]; human fibroblast cell cultures vs 0.1% DMSO): approximately 4 fold | total β-catenin protein levels, Western blot (β-catenin [9]; immortalized human fibroblast cells vs DMSO): significant decrease in total β-catenin protein levels | percent cell survival [10]: remained relatively unchanged
